Literature values in US12528823B2, “Inhibitors of aldose reductase” (Applied Therapeutics, Inc., priority 2019, dated 2026).

Experiments:
[1] = test system: ischemic injury (cerebral infarction); settings: normal mice; single oral dose either 30 mins before ischemia or 1 h 45 mins after ischemia
[2] = positive control; published/known value; octanol/pH 7.4 phosphate buffer

SMILES	reduction in infarct volume resulting from ischemic injury [1]	Log D [2]
NC(=O)[C@@H]1C[C@]2(NC(=O)NC2=O)c2cc(F)ccc2O1 [Fidarestat]	16-25%	–
C[C@]12CC[C@H]3[C@@H](CCC4=CC(=O)CC[C@@]43C)[C@@H]1CC[C@@H]2O [Testosterone]	–	3.0-3.4
